Data published in patent US20240216357A1 (SICHUAN HUIYU PHARMACEUTICAL CO., LTD., priority 2021, published 2024).
Where a name gives a salt, the structure may show the parent alone. Read-outs that look alike come from different tables or passages of the source.

Experiments:
LSD1 = LSD1 (Homo sapiens (Human), UniProt O60341); assay: LSD1 enzyme activity detection (HTRF); format: biochemical; conditions: read-out: Inhibition of enzymatic activity of LSD1 IC50
NCI-H1417 cells = assay: In vitro cell proliferation detection (CellTiter-Glo, 7 days); format: cell-based; conditions: read-out: NCI-H1417 proliferation inhibition IC50
[1] = Homo sapiens, 168 h, NCI-H1417 cells, 7 days, CellTiter-Glo

Compound	IC50 (LSD1; HTRF, H3K4me1 substrate) [µM]	IC50 (NCI-H1417 cells; [1]) [µM]	IC50 (LSD1) [µM]	IC50 (NCI-H1417 cells) [µM]
5′-(4-aminopiperidin-1l-yl)-3-fluoro-3′,3′-dihydroxy-4′-methyl-[1,1′:2′,1′-triphenyl]-4-carbonitrile [Example 266]	–	–	0.0007 ± 4e-06	0.00048
N#Cc1ccc(-c2nc(N3C4CCC3CC(N)C4)n3ccnc3c2-c2cc3nonc3cc2F)cc1F (stereo not drawn) [Example 186, 4-(5-(3-amino-8-azabicyclo[3.2.1]octane-8-yl)-8-(6-fluorobenzo[c] [1,2,5]oxadiazole-5-yl)imidazolo [1,2-c]pyrimidin-7-yl)-2-fluorobenzonitrile]	0.0173	0.018	–	–
CC1(N)CCN(c2nc(-c3ccc(C#N)c(F)c3)c(-c3ccc(OC(F)(F)F)c(O)c3)c3nccn23)CC1 [Example 152, 4-(5-(4-amino-4-methylpiperidin-1-yl)-8-(3-hydroxy-4-(trifluoromethoxy)phenyl)imidazolo [1,2-c]pyrimidin-7-yl)-2-fluorobenzonitrile]	0.0235	0.0124	–	–
Cc1noc2cc(-c3c(O)cc(N4C5CCC4CC(N)C5)nc3-c3ccc(C#N)c(F)c3)c(F)cc12 (stereo not drawn) [Example 24, 4-(6-(3-amino-8-azabicyclo[3.2.1]octane-8-yl)-3-(5-fluoro-3-methylbenzo[d]isoxazol-6-yl)-4-hydroxypyridin-2-yl)-2-fluorobenzonitrile]	0.0215 ± 0.0205	0.252	–	–
Cc1ccc(-c2c(-c3ccc(C#N)cc3)cc3c(N4CCC(N)CC4)nncn23)cc1 [Example 196, 4-(1-(4-aminopiperidin-1-yl)-6-(p-tolyl)pyrrolo[1,2-d][1,2,4]triazin-7-yl)benzonitrile hydrochloride]	–	0.656	0.0377	–
Cc1noc2cc(-c3nc(CN[C@@H]4C[C@H]4c4ccc(F)cc4)cc(C(=O)N4CCN(S(C)(=O)=O)CC4)n3)c(F)cc12 [Example 235]	0.285	0.0983	–	–
COc1ccc(-c2c(O)cc(N3CC4CNCC4C3)nc2-c2ccc(C#N)c(F)c2)cc1F (stereo not drawn) [Example 52, 2-fluoro-4-(3-(3-fluoro-4-methoxyphenyl)-6-(hexahydropyrrolo[3,4-c]pyrrole-2(1H)-yl)-4-hydroxypyridin-2-yl)benzonitrile hydrochloride]	–	0.167	0.1	–
CNC1CCCN(c2nc(OC)c(-c3ccc(OC)c(F)c3)c(-c3ccc(C#N)c(F)c3)n2)C1 (stereo not drawn) [Example 114, 2-fluoro-4-(5-(3-fluoro-4-methoxyphenyl)-6-methoxy-2-(3-(methylamino)piperidin-1-yl)pyrimidin-4-yl)benzonitrile hydrochloride]	–	> 1	0.067	–
CS(=O)(=O)N1CCN(c2cc(CN[C@@H]3C[C@H]3c3ccc(F)cc3)nc(-c3ccc(C#N)cc3)n2)CC1 [Example 264, 4-(4-((((1R,2S)-2-(4-fluoro-phenyl)cyclopropyl)amino)methyl)-6-(4-(methylsulfonyl)piperazin-1-yl)pyrimidin-2-yl)benzonitrile]	0.0876	0.0274	–	–
Cc1noc2cc(-c3c(-c4ccc(C#N)c(F)c4)nc(N(C)CCCN)n4ccnc34)c(F)cc12 [Example 150]	0.0203	0.0312	–	–
COc1ccc(-c2nc(CN[C@@H]3C[C@H]3c3ccc(F)cc3)cc(C(=O)N3CCC(F)(F)CC3)n2)cc1O [Example 247]	0.0658	0.00651	–	–
COc1ccc(-c2c(-c3ccc(C#N)c(F)c3)nc(N3CCC(C)(N)CC3)n3ccnc23)cc1O [Example 143, 4-(5-(4-amino-4-methylpiperidin-1-yl)-8-(3-hydroxy-4-methoxyphenyl)imidazolo[1,2-c]pyrimidin-7-yl)-2-fluorobenzonitrile]	0.0055 ± 0.0029	0.00482	–	–
N#Cc1ccc(-c2cc(C(=O)N3C4CCC3CC(N)C4)sc2-c2ccc3oc(=O)[nH]c3c2)cc1F (stereo not drawn) [Example 214, 4-(5-(3-amino-8-azabicyclo [3.2.1]octan-8-carbonyl)-2-(2-carbonyl-2,3-dihydrobenzo[d]oxazol-5-yl)thiophen-3-yl)-2-fluoro benzonitrile hydrochloride]	0.00047 ± 0.00013	0.493	–	–
COc1ccc(-c2c(-c3ccc(C#N)c(F)c3)nc(N3CC4CCC3CC4N)n3ccnc23)cc1F (stereo not drawn) [Example 170, 4-(5-(5-amino-2-azabicyclo[2.2.2]octane-2-yl)-8-(3-fluoro-4-methoxyphenyl)imidazolo[1,2-c]pyrimidin-7-yl)-2-fluorobenzonitrile hydrochloride]	0.0132	0.0183	–	–
Cc1ccc(-c2c(-c3ccc(C#N)cc3)cc3c(N4CCC(N)CC4)nccn23)cc1 [Example 193, 4-(1-(4-aminopiperidin-1-yl)-6-(p-tolyl)pyrrolo[1,2-a]pyrazin-7-yl)benzonitrile hydrochloride]	0.00172	0.0614	–	–
CNC1CCCN(c2nc(-c3ccc(C#N)c(F)c3)c(-c3ccc(OC)c(F)c3)c3nccn23)C1 (stereo not drawn) [Example 119, 2-fluoro-4-(8-(3-fluoro-4-methoxyphenyl)-5-(3-(methylamino)piperidin-1-yl)imidazolo[1,2-c]pyrimidin-7-yl) benzonitrile]	0.00954 ± 0.0012	0.0391	–	–

More lines, main results first:

IC50 (LSD1; HTRF, H3K4me1 substrate) [µM]	IC50 (NCI-H1417 cells; [1]) [µM]	Compound	IC50 (LSD1) [µM]	IC50 (NCI-H1417 cells) [µM]
0.051	0.0772	COc1ccc(-c2c(O)cc(N3CCC[C@@H](N)C3)nc2-c2ccc(C#N)c(F)c2)cc1F [Example 31, (R)-4-(6-(3-aminopiperidin-1-yl)-3-(3-fluoro-4-methoxyphenyl)-4-hydroxypyridin-2-yl)-2-fluorobenzonitrile hydrochloride]	–	–
0.0159	0.0213	CC(C)(O)C#Cc1ccc(-c2c(-c3ccc(C#N)c(F)c3)nc(N3CCC(N)CC3)n3ccnc23)cc1F [Example 126, 4-(5-(4-aminopiperidin-1-yl)-8-(3-fluoro-4-(3-hydroxy-3-methyl-1-alkynyl-1-yl)phenyl)imidazolo[1,2-c]pyrimidin-7-yl)-2-fluorobenzonitrile hydrochloride]	–	–
0.00903	0.0349	COc1ccc(-c2c(O)cc(N3CCC(N)CC3)nc2-c2ccc(C#N)c(F)c2)cn1 [Example 22, 4-(6-(4-aminopiperidin-1-yl)-4-hydroxy-6′-methoxy-[3,3′-bipyridine]-2-yl)-2-fluorobenzonitrile]	–	–
0.0003 ± 0.0001	0.000648	COc1ccc(-c2c(-c3ccc(C#N)c(F)c3)nc(N3CCC(N)CC3)c3ncoc23)cc1O [Example 278, 4-(4-(4-aminopiperidin-1-yl)-7-(3-hydroxy-4-methoxyphenyl)oxazolo[4,5-c]pyridin-6-yl)-2-fluo robenzonitrile]	–	–
0.0015 ± 0.0007	0.00402	COc1ccc(-c2c(OCC3CC3)cc(N3CCC(N)CC3)nc2-c2ccc(C#N)c(F)c2)cc1O [Example 108, 4-(6-(4-aminopiperidin-1-yl)-4-(cyclopropylmethoxy)-3-(3-hydroxy-4-methoxyphenyl)pyridin-2-yl)-2-fluorobenzonitrile hydrochloride]	–	–
0.0107	0.0176	N#Cc1ccc(-c2nc(N3CCC(N)CC3)n3ccnc3c2-c2ccc(OC(F)(F)F)c(F)c2)cc1F [Example 130, 4-(5-(4-aminopiperidin-1-yl)-8-(3-fluoro-4-(trifluoromethoxy)phenyl)imidazolo [1,2-c]pyrimidin-7-yl)-2-fluorobenzonitrile]	–	–
0.0578	0.29	N#Cc1ccc(-c2nc(N3CCC(N)CC3)cc(O)c2-c2ccc(C#N)c(F)c2)cc1F [Example 48, 4,4′-(6-(4-aminopiperidin-1-yl)-4-hydroxypyridine-2,3-diyl)bis(2-fluorobenzonitrile)]	–	–
0.064 ± 0.02	0.0882	COc1ccc(-c2c(O)cc(N3CC[C@@H](N)[C@H](OC)C3)nc2-c2ccc(C#N)c(F)c2)cc1F [Example 51, 4-(6-((3R,4R)-4-amino-3-methoxypiperidin-1-yl)-3-(3-fluoro-4-methoxyphenyl)-4-hydroxypyridin-2-yl)-2-fluorobenzonitrile]	–	–
0.0039 ± 0.0027	0.00841	COc1ccc(-c2cnc(N3CCC(N)CC3)c(C#N)c2-c2ccc(C#N)c(F)c2)cc1 [Example 69, 2-(4-aminopiperidin-1-yl)-4-(4-cyano-3-fluorophenyl)-5-(4-methoxyphenyl) nicotinonitrile hydrochloride]	–	–
0.0026 ± 0.0013	0.106	COc1ccc(-c2c(O)cc(N3CCC(N)CC3)nc2-c2ccc(C#N)c(F)c2)cc1C#N [Example 47, 4-(6-(4-aminopiperidin-1-yl)-3-(3-cyano-4-methoxyphenyl)-4-hydroxypyridin-2-yl)-2-fluorobenzonitrile]	–	–
0.0287	0.0476	N#Cc1ccc(-c2nc(N3CCC(N)CC3)n3ccnc3c2-c2ccc3[nH]nc(Cl)c3c2)cc1F [Example 123, 4-(5-(4-aminopiperidin-1-yl)-8-(3-chloro-1H-indazolo-5-yl)imidazolo[1,2-c]pyrimidin-7-yl)-2-fluorobenzonitrile]	–	–
0.0032 ± 0.00037	0.0426	COc1ccc(-c2c(C(N)=O)nc(N3CCC(N)CC3)nc2-c2ccc(C#N)c(F)c2)cc1F [Example 110, 2-(4-aminopiperidin-1-yl)-6-(4-cyano-3-fluorophenyl)-5-(3-fluoro-4-methoxyphenyl)pyrimidine-4-carboxamide hydrochloride]	–	–
0.0783	0.0872	N#Cc1ccc(-c2nc(N3CCC(N)CC3)cc(O)c2-c2ccc(OC(F)(F)F)c(F)c2)cc1F [Example 18, 4-(6-(4-aminopiperidin-1-y)-3-(3-fluoro-4-(trifluoromethoxy)phenyl)-4-hydroxypyridin-2-yl)-2-fluorobenzonitrile]	–	–
0.0344	0.135	CC(C)(O)Cn1ncc2cc(F)c(-c3c(-c4ccc(C#N)c(F)c4)nc(N4CCC(N)CC4)n4ccnc34)cc21 [Example 127, 4-(5-(4-aminopiperidin-1-yl)-8-(5-fluoro-1-(2-hydroxy-2-methylpropyl)-1H-indazo-6-yl)imidazolo[1,2-c]pyrimidin-7-yl)-2-fluorobenzonitrile hydrochloride]	–	–
